Data: patent US9980943B2, “Methods of treating muscular dystrophy” (BOARD OF REGENTS OF THE NEVADA SYSTEM OF HIGHER EDUCATION, …, priority 2013, dated 2018)

Assays:
Format in all cases: cell-based, mouse
[1] = system: β-galactosidase in CMV-LacZ C2C12 myoblasts; experiment: CMV-LacZ secondary screen in C2C12 myoblasts (β-Gal stabilizing assay); details: CMV-LacZ C2C12 myoblasts
From the text: In order to determine compounds that acted to stabilize β-gal in myogenic cells, a CMV-LacZ C2C12 cell line was used in a secondary screen. The EGFP gene from the pEGFP (Clontech) vector was replaced by LACZ PCR product with digests of the vector/PCR product performed using EcoRI (NEB) and NotI (NEB) and ligated using T4 DNA Ligase (NEB) following standard procedures to produce the CMV-LACZ vector. The LACZ gene was generated by PCR from the pBK-RSV (Stratagene) vector using primers LACZ EcoRI F- and LACZ NotI R-. The CMV-LACZ vector was then digested with AfIII (NEB) to linearize the construct, which was then transfected in C2C12 myoblasts using Lipofectamine 2000 (Invitrogen) following the manufacturer's instructions. […] Clonal lines were selected and screened for βgal levels using the myoblast FDG assay.
The assays were used the original 96-well format and new dose-response curves for myoblasts (N=3-6 replicates for each data point), myotubes (N=3-6 replicates for data point), and CMV-LacZ secondary assay (N=2 replicates for each data point) using concentrations of 0.5 μM, 1 μM, 5 μM, 10 μM, 20 μM, and 40 μM (Tables 9-16).

[2] = system: β-galactosidase in CMV-LacZ C2C12 myotubes; experiment: CMV-LacZ secondary screen in C2C12 myotubes (β-Gal stabilizing assay); details: C2C12 CMV-LacZ myotubes, fold relative to DMSO
Outline: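 A secondary screen identifies compounds that stabilize β-gal independently of the native promoter, using CMV-LacZ C2C12 cells. Curves span 0.5–40 μM at six levels, in duplicate.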

[3] = system: α7 integrin (LacZ reporter in α7βgal+/− myoblasts); experiment: Myoblast α7+/LacZ integrin FDG assay (Burkin assay in myoblasts, 96-well); details: α7+/LacZ myoblasts, 96-well
[4] = system: α7 integrin (LacZ reporter in α7+/LacZ myotubes); experiment: Myotube α7 integrin FDG assay (Burkin assay in myotubes, 96-well); details: myotubes

Structure (SMILES)	CMV-LACZ in Myoblasts (β-galactosidase activity relative to DMSO) ([1]; 0.5 uM)	CMV-LACZ in Myoblasts (β-galactosidase activity relative to DMSO) ([1]; 1 uM)	CMV-LACZ in Myoblasts (β-galactosidase activity relative to DMSO) ([1]; 5 uM)	CMV-LACZ in Myoblasts (β-galactosidase activity relative to DMSO) ([1]; 10 uM)	CMV-LACZ in Myoblasts (β-galactosidase activity relative to DMSO) ([1]; 20 uM)	CMV-LACZ in Myoblasts (β-galactosidase activity relative to DMSO) ([1]; 40 uM)	CMV-LACZ in Myotubes, signal relative to DMSO ([2]; 0.5 uM)	CMV-LACZ in Myotubes, signal relative to DMSO ([2]; 1 uM)	CMV-LACZ in Myotubes, signal relative to DMSO ([2]; 5 uM)	CMV-LACZ in Myotubes, signal relative to DMSO ([2]; 10 uM)	CMV-LACZ in Myotubes, signal relative to DMSO ([2]; 20 uM)	CMV-LACZ in Myotubes, signal relative to DMSO ([2]; 40 uM)	Burkin Assay in Myoblasts, signal relative to DMSO ([3]; 0.5 uM)	Burkin Assay in Myoblasts, signal relative to DMSO ([3]; 1 uM)	Burkin Assay in Myoblasts, signal relative to DMSO ([3]; 5 uM)	Burkin Assay in Myoblasts, signal relative to DMSO ([3]; 10 uM)	Burkin Assay in Myoblasts, signal relative to DMSO ([3]; 20 uM)	Burkin Assay in Myoblasts, signal relative to DMSO ([3]; 40 uM)	Burkin Assay in Myotubes, α7 integrin LacZ reporter signal relative to DMSO ([4]; 0.5 uM)	Burkin Assay in Myotubes, α7 integrin LacZ reporter signal relative to DMSO ([4]; 1 uM)	other results
CCOC(=O)c1nnn(-c2nonc2OC)c1-c1ccccc1 [MLS000045588-01]	0.7647	0.8372	1.0245	1.0611	0.8056	1.2167	0.9059	0.8607	1.2294	0.9776	1.0494	0.9424	1.016	1.107	1.075	0.917	1.003	0.8919	1.077	1.099	Burkin Assay in Myotubes, α7 integrin LacZ reporter signal relative to DMSO ([4]; 5 uM): 1.135; Burkin Assay in Myotubes, α7 integrin LacZ reporter signal relative to DMSO ([4]; 10 uM): 1.036; Burkin Assay in Myotubes, α7 integrin LacZ reporter signal relative to DMSO ([4]; 20 uM): 1.063; Burkin Assay in Myotubes, α7 integrin LacZ reporter signal relative to DMSO ([4]; 40 uM): 0.9546
O=C(O)CC1(c2ccccc2)C(=O)c2ccccc2C1=O [MLS000052969-01]	0.8950	1.0529	0.9976	1.0444	1.1522	0.6800	0.9152	1.1714	1.0651	0.8406	0.9800	0.9726	1.25	1.352	0.9646	0.8356	0.8292	0.7591	0.9131	1.058	Burkin Assay in Myotubes, α7 integrin LacZ reporter signal relative to DMSO ([4]; 5 uM): 0.9184; Burkin Assay in Myotubes, α7 integrin LacZ reporter signal relative to DMSO ([4]; 10 uM): 0.876; Burkin Assay in Myotubes, α7 integrin LacZ reporter signal relative to DMSO ([4]; 20 uM): 0.6621; Burkin Assay in Myotubes, α7 integrin LacZ reporter signal relative to DMSO ([4]; 40 uM): 0.5548
CCC(=O)c1ccc(OCC(O)CN2CC(C)OC(C)C2)cc1.O=C(O)C(=O)O (stereo not drawn) [MLS000053342-01]	1.0289	1.0397	1.0865	0.8785	0.9811	0.9930	0.9947	0.9863	0.9033	0.9187	1.3044	1.1344	1.222	1.088	0.9766	0.8668	1.0354	1.022	1.059	1.011	Burkin Assay in Myotubes, α7 integrin LacZ reporter signal relative to DMSO ([4]; 5 uM): 1.002; Burkin Assay in Myotubes, α7 integrin LacZ reporter signal relative to DMSO ([4]; 10 uM): 1.03; Burkin Assay in Myotubes, α7 integrin LacZ reporter signal relative to DMSO ([4]; 20 uM): 1.049; Burkin Assay in Myotubes, α7 integrin LacZ reporter signal relative to DMSO ([4]; 40 uM): 1.11
CC(C)Oc1cccc(C(=O)Nc2ccc(CN3CCOCC3)cc2)c1 [MLS000062431-01]	0.9557	1.1631	0.9848	1.1632	1.0467	1.0993	0.9133	0.9743	0.9004	0.9690	0.8812	1.2047	0.9542	0.9582	1.016	1.209	1.789	0.9038	0.9571	0.8415	Burkin Assay in Myotubes, α7 integrin LacZ reporter signal relative to DMSO ([4]; 5 uM): 1.178; Burkin Assay in Myotubes, α7 integrin LacZ reporter signal relative to DMSO ([4]; 10 uM): 1.1989; Burkin Assay in Myotubes, α7 integrin LacZ reporter signal relative to DMSO ([4]; 20 uM): 0.7643; Burkin Assay in Myotubes, α7 integrin LacZ reporter signal relative to DMSO ([4]; 40 uM): 0.8841
COc1ccc(C(=O)Cn2nnc(-c3ccccc3NC(=O)c3ccco3)n2)cc1 [MLS000072290-01]	1.0579	0.9000	1.4390	1.3303	0.3911	0.2915	0.9362	1.1495	1.3265	1.1459	1.3484	1.0653	1.405	1.196	0.7334	0.6517	0.3984	0.2238	1.109	1.121	Burkin Assay in Myotubes, α7 integrin LacZ reporter signal relative to DMSO ([4]; 5 uM): 0.9096; Burkin Assay in Myotubes, α7 integrin LacZ reporter signal relative to DMSO ([4]; 10 uM): 0.8405; Burkin Assay in Myotubes, α7 integrin LacZ reporter signal relative to DMSO ([4]; 20 uM): 0.475; Burkin Assay in Myotubes, α7 integrin LacZ reporter signal relative to DMSO ([4]; 40 uM): 0.1784
CCC(C)n1[nH]c(=O)cc1N (stereo not drawn) [MLS000073150-01]	1.0753	1.8970	0.8193	0.9954	0.9491	0.9000	1.0752	1.0848	1.2058	1.1088	0.9750	1.0390	1.262	1.0875	0.9262	0.909	1.139	1.068	1.111	0.9205	Burkin Assay in Myotubes, α7 integrin LacZ reporter signal relative to DMSO ([4]; 5 uM): 0.9467; Burkin Assay in Myotubes, α7 integrin LacZ reporter signal relative to DMSO ([4]; 10 uM): 0.9476; Burkin Assay in Myotubes, α7 integrin LacZ reporter signal relative to DMSO ([4]; 20 uM): 0.8369; Burkin Assay in Myotubes, α7 integrin LacZ reporter signal relative to DMSO ([4]; 40 uM): 0.856
